Results taken from patent publication US9914736B2, “TrKA kinase inhibitors, compositions and methods thereof” (Merck Sharp & Dohme Corp., priority 2014, dated 2018).

Biological target: human TrkA receptor (Homo sapiens (Human), UniProt P04629)
Assay: DiscoverX PathHunter TrkA functional assay
Assay type: cell-based
Conditions: U2OS cells expressing human TrkA-ProLink, Shc1-EA and p75NTR; compound 1 h, then NGF at ~80% of maximal response for 3 h; luminescence

Chain of human TrkA receptor (P04629 33-796): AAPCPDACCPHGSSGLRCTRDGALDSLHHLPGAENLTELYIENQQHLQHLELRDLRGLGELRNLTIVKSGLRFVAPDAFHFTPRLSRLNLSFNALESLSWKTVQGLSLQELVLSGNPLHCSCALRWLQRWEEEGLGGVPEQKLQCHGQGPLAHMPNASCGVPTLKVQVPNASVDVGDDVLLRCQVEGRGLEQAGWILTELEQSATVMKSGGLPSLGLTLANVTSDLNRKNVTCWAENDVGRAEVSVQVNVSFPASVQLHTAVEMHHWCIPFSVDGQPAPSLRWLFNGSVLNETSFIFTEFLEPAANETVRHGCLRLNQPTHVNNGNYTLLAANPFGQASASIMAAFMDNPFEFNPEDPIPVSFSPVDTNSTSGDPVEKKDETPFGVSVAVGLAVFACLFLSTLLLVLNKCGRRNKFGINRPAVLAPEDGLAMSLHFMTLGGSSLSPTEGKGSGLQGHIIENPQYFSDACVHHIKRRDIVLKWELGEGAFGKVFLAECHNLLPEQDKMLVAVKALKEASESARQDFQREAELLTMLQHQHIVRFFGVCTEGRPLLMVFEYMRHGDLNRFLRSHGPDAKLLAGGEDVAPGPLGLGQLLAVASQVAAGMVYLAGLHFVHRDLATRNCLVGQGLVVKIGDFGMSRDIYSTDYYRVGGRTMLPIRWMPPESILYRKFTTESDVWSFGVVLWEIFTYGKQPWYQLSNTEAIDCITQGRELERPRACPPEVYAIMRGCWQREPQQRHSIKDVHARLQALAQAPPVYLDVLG

Row | IC50 [nM] | Compound
1 | 240 | Cc1cc(-n2nc(CN3CCCC3)cc2NC(=O)c2ccc(C(F)(F)F)c(-c3ccn(C)n3)c2)[nH]n1 [Compound 69, 3-(1-methyl-1H-pyrazol-3-yl)-N-[5′-methyl-3-(pyrrolidin-1-ylmethyl)-2′H-1,3′-bipyrazol-5-yl]-4-(trifluoromethyl)benzamide]
2 | 22 | O=C(Nc1cc(-c2ncccn2)nn1-c1ccc(F)cc1)c1cc(-c2cc[nH]n2)c(C(F)(F)F)cc1F [Compound 64, 2-fluoro-N-[1-(4-fluorophenyl)-3-pyrimidin-2-yl-1H-pyrazol-5-yl]-5-(1H-pyrazol-3-yl)-4-(trifluoromethyl)benzamide]
3 | 5.8 | Cn1ccc(-c2cc(C(=O)Nc3cn[nH]c3-c3ccccc3)c(Cl)cc2C(F)(F)F)n1 [Compound 49, 2-chloro-5-(1-methyl-1H-pyrazol-3-yl)-N-(5-phenyl-1H-pyrazol-4-yl)-4-(trifluoromethyl)benzamide]
4 | 44 | Cn1ccc(-c2cc(C(=O)Nc3c(-c4ccccc4)nc4n3CCC4)ccc2C(F)(F)F)n1 [Compound 79, 3-(1-methyl-1H-pyrazol-3-yl)-N-(2-phenyl-6,7-dihydro-5H-pyrrolo[1,2-a]imidazol-3-yl)-4-(trifluoromethyl)benzamide]
5 | 1.7 | Cc1cc(-n2nc(C(=O)NCc3ccns3)cc2NC(=O)c2ccc(C(F)(F)F)c(-c3ccn(C)n3)c2)[nH]n1 [Compound 25, N-(isothiazol-5-ylmethyl)-5′-methyl-5-({[3-(1-methyl-1H-pyrazol-3-yl)-4-(trifluoromethyl)phenyl]carbonyl}amino)-2′H-1,3′-bipyrazole-3-carboxamide]
6 | 290 | O=C(Nc1cc(-c2ccc(=O)[nH]n2)nn1-c1ccccc1)c1ccc(C(F)(F)F)cc1Cl [Compound 10, 2-chloro-N-[3-(6-oxo-1,6-dihydropyridazin-3-yl)-1-phenyl-1H-pyrazol-5-yl]-4-(trifluoromethyl)benzamide]
7 | 2.4 | NCc1cccc(-c2cc(NC(=O)c3cc(-c4ncccn4)c(C(F)(F)F)cc3F)n(-c3ccc(F)cc3)n2)c1 [Compound 103, N-(3-(3-(aminomethyl)phenyl)-1-(4-fluorophenyl)-1H-pyrazol-5-yl)-2-fluoro-5-(pyrimidin-2-yl)-4-(trifluoromethyl)benzamide]
8 | 0.98 | Cn1ccc(-c2cc(C(=O)Nc3cc(Cc4ccc(=O)[nH]n4)nn3-c3ccc(F)cc3)c(F)cc2C(F)(F)F)n1 [Compound 105, 2-fluoro-N-(1-(4-fluorophenyl)-3-((6-oxo-1,6-dihydropyridazin-3-yl)methyl)-1H-pyrazol-5-yl)-5-(1-methyl-1H-pyrazol-3-yl)-4-(trifluoromethyl)benzamide]
9 | 1.7 | Cc1csc(-c2cc(C(=O)Nc3cc(-c4ccccn4)nn3-c3cc(C)[nH]n3)ccc2C(F)(F)F)n1 [Compound 6, N-(5′-methyl-3-pyridin-2-yl-1′H-1,3′-bipyrazol-5-yl)-3-(4-methyl-1,3-thiazol-2-yl)-4-(trifluoromethyl)benzamide]
10 | 85 | O=C(Nc1cn[nH]c1-c1ccccc1)c1cc(-c2cc[nH]n2)c(C(F)(F)F)cc1F [Compound 62, 2-fluoro-N-(5-phenyl-1H-pyrazol-4-yl)-5-(1H-pyrazol-3-yl)-4-(trifluoromethyl)benzamide]
11 | 18 | Cn1ccc(-c2cc(C(=O)Nc3cn[nH]c3-c3ccccc3)ccc2C(F)(F)F)n1 [Compound 18, 3-(1-methyl-1H-pyrazol-3-yl)-N-(5-phenyl-1H-pyrazol-4-yl)-4-(trifluoromethyl)benzamide]
12 | 150 | Cc1nc(NC(=O)c2ccc(C(F)(F)F)c(-c3ccn(C)n3)c2)n(-c2ccccc2)n1 [Compound 15, N-(3-methyl-1-phenyl-1H-1,2,4-triazol-5-yl)-3-(1-methyl-1H-pyrazol-3-yl)-4-(trifluoromethyl)benzamide]
13 | 390 | O=C(Nc1cc(-c2ccc(=O)[nH]n2)nn1-c1ccccc1)c1ccc(C(F)(F)F)c(-c2ccn(CC(F)(F)F)n2)c1 [Compound 70, N-[3-(6-oxo-1,6-dihydropyridazin-3-yl)-1-phenyl-1H-pyrazol-5-yl]-3-[1-(2,2,2-trifluoroethyl)-1H-pyrazol-3-yl]-4-(trifluoromethyl)benzamide]
14 | 38 | Cc1nc(-c2ccccc2)c(NC(=O)c2ccc(C(F)(F)F)c(-c3ccn(C)n3)c2)[nH]1 [Compound 13, N-(2-methyl-4-phenyl-1H-imidazol-5-yl)-3-(1-methyl-1H-pyrazol-3-yl)-4-(trifluoromethyl)benzamide]
15 | 62 | Cc1nc(NC(=O)c2ccc(C(F)(F)F)c(-c3ccn(C)n3)c2)c(-c2ccccc2)s1 [Compound 72, N-(2-methyl-5-phenyl-1,3-thiazol-4-yl)-3-(1-methyl-1H-pyrazol-3-yl)-4-(trifluoromethyl)benzamide]
16 | 6.7 | O=C(Nc1sc(-c2cnn(CCO)c2)nc1-c1ccccc1)c1cc(-c2ncccn2)c(C(F)(F)F)cc1F [Compound 106, 2-fluoro-N-(2-(1-(2-hydroxyethyl)-1H-pyrazol-4-yl)-4-phenylthiazol-5-yl)-5-(pyrimidin-2-yl)-4-(trifluoromethyl)benzamide]

Row | IC50 [nM] | Compound
17 | 2.3 | Cn1ccc(-c2cc(C(=O)Nc3cc(Cn4cnnn4)nn3-c3ccccc3)ccc2C(F)(F)F)n1 [Compound 66, 3-(1-methyl-1H-pyrazol-3-yl)-N-[1-phenyl-3-(1H-tetrazol-1-ylmethyl)-1H-pyrazol-5-yl]-4-(trifluoromethyl)benzamide]
18 | 19 | Cn1ccc(-c2cc(C(=O)Nc3c(-c4ccccc4)ncn3C)ccc2C(F)(F)F)n1 [Compound 12, N-(1-methyl-4-phenyl-1H-imidazol-5-yl)-3-(1-methyl-1H-pyrazol-3-yl)-4-(trifluoromethyl)benzamide]
19 | 3 | Cn1ccc(-c2cc(C(=O)Nc3cc(-c4ncccn4)nn3-c3ccc(F)cc3)ccc2C(F)(F)F)n1 [Compound 60, N-[1-(4-fluorophenyl)-3-pyrimidin-2-yl-1H-pyrazol-5-yl]-3-(1-methyl-1H-pyrazol-3-yl)-4-(trifluoromethyl)benzamide]
20 | 78 | Cc1cc(-n2nc(-c3ccc(=O)[nH]n3)cc2NC(=O)c2ccc(C(F)(F)F)c(-c3ncccn3)c2)n[nH]1 [Compound 57, N-[5′-methyl-3-(6-oxo-1,6-dihydropyridazin-3-yl)-1′H-1,3′-bipyrazol-5-yl]-3-pyrimidin-2-yl-4-(trifluoromethyl)benzamide]
21 | 5.7 | Cn1ccc(-c2cc(C(=O)Nc3c(-c4ccccc4)nc(C(N)=O)n3C)ccc2C(F)(F)F)n1 [Compound 50, 1-methyl-5-({[3-(1-methyl-1H-pyrazol-3-yl)-4-(trifluoromethyl)phenyl]carbonyl}amino)-4-phenyl-1H-imidazole-2-carboxamide]
22 | 170 | Cn1ccc(-c2cc(C(=O)Nc3oncc3-c3ccccc3)ccc2C(F)(F)F)n1 [Compound 17, 3-(1-methyl-1H-pyrazol-3-yl)-N-(4-phenylisoxazol-5-yl)-4-(trifluoromethyl)benzamide]
23 | 0.39 | Cc1cc(-n2nc(C(=O)NCc3cccnc3)cc2NC(=O)c2cc(-c3ccn(C)n3)c(C(F)(F)F)cc2F)[nH]n1 [Compound 76, 5-({[2-fluoro-5-(1-methyl-1H-pyrazol-3-yl)-4-(trifluoromethyl)phenyl]carbonyl}amino)-5′-methyl-N-(pyridin-3-ylmethyl)-2′H-1,3′-bipyrazole-3-carboxamide]
24 | 11 | Cc1c(-c2cnn(C)c2)nn(-c2ccccc2)c1NC(=O)c1ccc(C(F)(F)F)c(-c2ccn(C)n2)c1 [Compound 44, N-(1′,4-dimethyl-1-phenyl-1H,1′H-3,4′-bipyrazol-5-yl)-3-(1-methyl-1H-pyrazol-3-yl)-4-(trifluoromethyl)benzamide]
25 | 590 | Cc1nc(-c2nc(C)n(C)c2NC(=O)c2ccc(C(F)(F)F)c(-c3ccn(C)n3)c2)cs1 [Compound 53, N-[1,2-dimethyl-4-(2-methyl-1,3-thiazol-4-yl)-1H-imidazol-5-yl]-3-(1-methyl-1H-pyrazol-3-yl)-4-(trifluoromethyl)benzamide]
26 | 6.6 | Cn1ccc(-c2cc(C(=O)Nc3cc(Cc4ccc(=O)[nH]n4)nn3-c3ccccc3)ccc2C(F)(F)F)n1 [Compound 28, 3-(1-methyl-1H-pyrazol-3-yl)-N-{3-[(6-oxo-1,6-dihydropyridazin-3-yl)methyl]-1-phenyl-1H-pyrazol-5-yl}-4-(trifluoromethyl)benzamide]
27 | 57 | Cc1cc(NC(=O)c2ccc(OC(F)(F)F)c(-c3ccn(C)n3)c2)n(-c2ccc(F)cc2)n1 [Compound 73, N-[1-(4-fluorophenyl)-3-methyl-1H-pyrazol-5-yl]-3-(1-methyl-1H-pyrazol-3-yl)-4-(trifluoromethoxy)benzamide]
28 | 1.4 | Cn1ccc(-c2cc(C(=O)Nc3cc(Cc4cncnc4)nn3-c3ccc(F)cc3)ccc2C(F)(F)F)n1 [Compound 95, N-(1-(4-fluorophenyl)-3-(pyrimidin-5-ylmethyl)-1H-pyrazol-5-yl)-3-(1-methyl-1H-pyrazol-3-yl)-4-(trifluoromethyl)benzamide]
29 | 780 | Cc1nc(-c2ccccc2)c(NC(=O)c2ccc(C(F)(F)F)cc2F)s1 [Compound 1, 2-fluoro-N-(2-methyl-4-phenyl-1,3-thiazol-5-yl)-4-(trifluoromethyl)benzamide]
30 | 5.5 | Cn1ccc(-c2cc(C(=O)Nc3cc(-c4ccc(=O)[nH]n4)nn3-c3ccccc3)ccc2C(F)(F)F)n1 [Compound 11, 3-(1-methyl-1H-pyrazol-3-yl)-N-[3-(6-oxo-1,6-dihydropyridazin-3-yl)-1-phenyl-1H-pyrazol-5-yl]-4-(trifluoromethyl)benzamide]
31 | 1.6 | Cn1ccc(-c2cc(C(=O)Nc3cc(-c4ccc(=O)[nH]n4)nn3-c3ccccc3)c(Cl)cc2C(F)(F)F)n1 [Compound 55, 2-chloro-5-(1-methyl-1H-pyrazol-3-yl)-N-[3-(6-oxo-1,6-dihydropyridazin-3-yl)-1-phenyl-1H-pyrazol-5-yl]-4-(trifluoromethyl)benzamide]
32 | 4.9 | NC(=O)c1ccnc(-c2cc(NC(=O)c3cc(-c4ncccn4)c(C(F)(F)F)cc3F)n(-c3ccc(F)cc3)n2)n1 [Compound 84, 2-(5-(2-fluoro-5-(pyrimidin-2-yl)-4-(trifluoromethyl)benzamido)-1-(4-fluorophenyl)-1H-pyrazol-3-yl)pyrimidine-4-carboxamide]
